Tested on: probiotic bacteria preblend (Lactobacillus rhamnosus GG1 and Bifidobacterium lactis BB12)
Format: cell-based
Settings: iron fortifying agent combined with probiotic bacteria
Method: For practical reasons (accuracy in weighed amount), the amounts have been multiplied by 5.
Five preparations containing various iron fortifying agents and probiotic bacteria, and a control composition containing pro biotic bacteria and no iron fortifying agent were tested, as follows:
For each preparation, the required amount of iron fortificant was weighed. The iron fortificant was mixed with the specified amount of diluent TS+, i.e., a reconstitution solution with Tryptone, Sodium Chloride and Antifoam at 37° C. having the following composition:
The mixture was agitated until complete homogenization of the solution (3 min).
The probiotic bacteria preblend (PP036) was added and the mixture agitated for 1 min.
Each of the six preparations were analysed in triplicate.
Bacterial viability was determined immediately after preparation by plating of serial dilutions and subsequent counting of colony forming units. […] The principle of the method is the following: • Samples containing probiotics are weighed, rehydrated in a diluent (TS+) and homogenized by stomaching. • Serial decimal dilutions are performed in the same diluent (TS+) • 1 mL of each appropriate dilution is transferred to Petri dishes and mixed with a specific agar (pour-plate method) • The inoculated solidified agar plates are incubated under specific conditions enabling colony formation by the target bacteria (selective enumeration) • Colonies are counted and results are calculated and expressed in colony forming units per gram of sample (CFU/g).

Substance	Effect on viability of probiotic bacteria (in words)
ferric ammonium citrate	caused a significant loss of bacteria viability
ferric pyrophosphate	does not decrease bacterial viability
ferrous bisglycinate	caused a significant loss of bacteria viability
ferrous sulfate	caused a significant loss of bacteria viability

From US12397026B2, “Dietary supplement” (SOCIÉTÉ DES PRODUITS NESTLÉ S.A., priority 2015, dated 2025)
